How the values were obtained:
[1] = biological target: T1, human recombinant HDAC1 (Homo sapiens, UniProt Q13547); assay: HDAC1 enzyme activity inhibition test (HDAC Fluorometric Drug Discovery Kit); assay type: biochemical; details: 30° C., 60 minutes, 10 μM substrate
T1 construct: purchased Enzo Life Science BML-SE456
Method in brief: (§1)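 IC50 derived from fluorescence (Ex 360, Em 460) following 30 min development with Developer II. Each reaction held 0.3 μg human recombinant HDAC1 or HDAC6, 10 μM Fluor de Lys SIRT1 substrate and 5-fold serially diluted compound, incubated 60 min at 30 °C.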

[2] = biological target: T2, human recombinant HDAC6 (Homo sapiens, UniProt Q9UBN7); assay: HDAC6 enzyme activity inhibition test (HDAC Fluorometric Drug Discovery Kit); assay type: biochemical; details: for HDAC6 selectivity (fold): HDAC6 over HDAC1; for IC50: human recombinant HDAC6, same protocol as HDAC1
T2 construct: purchased Calbiochem 382180
T2 sequence (Q9UBN7 1-1215): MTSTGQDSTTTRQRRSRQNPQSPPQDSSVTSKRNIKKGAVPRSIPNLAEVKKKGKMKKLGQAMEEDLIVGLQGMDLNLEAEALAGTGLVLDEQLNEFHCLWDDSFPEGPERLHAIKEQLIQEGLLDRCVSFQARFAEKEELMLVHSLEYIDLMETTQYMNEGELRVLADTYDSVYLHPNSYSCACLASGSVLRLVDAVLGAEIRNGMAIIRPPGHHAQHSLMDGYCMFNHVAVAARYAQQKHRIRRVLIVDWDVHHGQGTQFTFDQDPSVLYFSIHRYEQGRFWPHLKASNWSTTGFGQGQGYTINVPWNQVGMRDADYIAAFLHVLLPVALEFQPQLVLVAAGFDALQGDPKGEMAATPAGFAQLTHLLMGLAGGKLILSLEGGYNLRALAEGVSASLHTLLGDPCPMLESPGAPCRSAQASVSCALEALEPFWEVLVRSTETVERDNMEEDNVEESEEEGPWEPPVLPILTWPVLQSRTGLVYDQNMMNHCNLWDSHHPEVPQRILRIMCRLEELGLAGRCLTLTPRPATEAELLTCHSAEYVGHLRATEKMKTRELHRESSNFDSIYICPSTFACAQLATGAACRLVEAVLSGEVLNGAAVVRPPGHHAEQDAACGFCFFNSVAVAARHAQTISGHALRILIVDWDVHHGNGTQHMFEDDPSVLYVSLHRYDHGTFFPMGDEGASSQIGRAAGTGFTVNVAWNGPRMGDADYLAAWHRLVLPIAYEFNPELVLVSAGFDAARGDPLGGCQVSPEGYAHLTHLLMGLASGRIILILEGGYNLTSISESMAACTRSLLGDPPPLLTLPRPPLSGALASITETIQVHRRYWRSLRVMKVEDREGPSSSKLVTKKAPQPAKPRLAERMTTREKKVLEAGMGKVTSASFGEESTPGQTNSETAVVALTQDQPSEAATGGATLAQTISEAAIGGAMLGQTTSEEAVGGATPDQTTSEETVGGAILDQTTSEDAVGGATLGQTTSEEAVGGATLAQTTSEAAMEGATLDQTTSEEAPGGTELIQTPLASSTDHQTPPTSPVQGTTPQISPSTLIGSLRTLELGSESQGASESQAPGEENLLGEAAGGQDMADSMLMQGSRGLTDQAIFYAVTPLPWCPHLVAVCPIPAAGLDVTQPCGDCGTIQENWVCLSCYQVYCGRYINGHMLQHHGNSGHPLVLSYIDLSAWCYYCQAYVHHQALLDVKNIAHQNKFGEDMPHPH
Method in brief: as §1

T1 sequence (Q13547 whole entry): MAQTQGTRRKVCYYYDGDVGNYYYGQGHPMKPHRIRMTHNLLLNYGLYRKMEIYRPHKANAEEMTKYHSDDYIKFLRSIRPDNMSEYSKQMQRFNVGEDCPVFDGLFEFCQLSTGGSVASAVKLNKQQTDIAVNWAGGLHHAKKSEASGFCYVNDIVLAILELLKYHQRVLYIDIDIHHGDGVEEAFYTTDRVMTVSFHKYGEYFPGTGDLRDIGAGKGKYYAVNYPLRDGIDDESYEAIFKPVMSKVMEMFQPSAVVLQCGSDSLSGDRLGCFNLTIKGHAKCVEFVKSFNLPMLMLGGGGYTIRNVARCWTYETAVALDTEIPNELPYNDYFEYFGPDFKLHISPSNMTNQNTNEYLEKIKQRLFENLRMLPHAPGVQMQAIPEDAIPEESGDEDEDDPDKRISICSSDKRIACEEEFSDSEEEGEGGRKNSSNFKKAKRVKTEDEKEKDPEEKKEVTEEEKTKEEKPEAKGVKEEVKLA

SMILES | IC50 [1] [nM] | HDAC6 selectivity (fold) [2] [fold] | IC50 [2] [nM]
Cc1nc(-c2nn(Cc3ncc(-c4nnc(C(F)F)o4)cc3F)c(=S)o2)cs1 [Compound 60, 3-[[5-[5-(difluoromethyl)-1,3,4-oxadiazol-2-yl]-3-fluoro-2-pyridyl]methyl]-5-(2-methylthiazol-4-yl)-1,3,4-oxadiazol-2-thione] | > 50000 | 614 | 81.4
CC(C)N1CCN(Cc2ccc(-c3nn(Cc4ccc(-c5nnc(C(F)F)o5)cn4)c(=S)o3)cc2)CC1 [Compound 77, 3-[[5-[5-(difluoromethyl)-1,3,4-oxadiazol-2-yl]-2-pyridyl]methyl]-5-[4-[(4-isopropylpiperazin-1-yl)methyl]phenyl]-1,3,4-oxadiazol-2-thione] | > 50000 | 669 | 74.7
O=C1OCC(c2ccccn2)=NN1Cc1ncc(-c2nnc(C(F)F)o2)cc1F [Compound 73, 3-[[5-[5-(difluoromethyl)-1,3,4-oxadiazol-2-yl]-3-fluoro-2-pyridyl]methyl]-5-(2-pyridyl)-6H-1,3,4-oxadiazin-2-one] | > 50000 | 442 | 113
CNCc1cccc(-c2nn(Cc3ccc(-c4nnc(C(F)F)o4)cn3)c(=S)o2)c1 [Compound 85, 3-[[5-[5-(difluoromethyl)-1,3,4-oxadiazol-2-yl]-2-pyridyl]methyl]-5-[3-(methylaminomethyl)phenyl]-1,3,4-oxadiazol-2-thione] | > 50000 | 447 | 112
O=c1oc(-c2cccc(N3CCN(C4COC4)CC3)n2)nn1Cc1ccc(-c2nnc(C(F)F)o2)cn1 [Compound 7, 3-[[5-[5-(difluoromethyl)-1,3,4-oxadiazol-2-yl]-2-pyridyl]methyl]-5-[6-[4-(oxetane-3-yl)piperazin-1-yl]-2-pyridyl]-1,3,4-oxadiazol-2-one] | > 50000 | 600 | 83.3
O=c1oc(-c2cccc(N3CCN(C4CCC4)CC3)c2)nn1Cc1ccc(-c2nnc(C(F)F)o2)cn1 [Compound 39, 5-[3-(4-cyclobutylpiperazin-1-yl)phenyl]-3-[[5-[5-(difluoromethyl)-1,3,4-oxadiazol-2-yl]-2-pyridyl]methyl]-1,3,4-oxadiazol-2-one] | > 50000 | 605 | 82.7
O=c1sc(-c2ccccc2F)nn1Cc1ccc(-c2nnc(C(F)F)o2)cn1 [Compound 54, 3-[[5-[5-(difluoromethyl)-1,3,4-oxadiazol-2-yl]-2-pyridyl]methyl]-5-(2-fluorophenyl)-1,3,4-thiadiazol-2-one] | > 50000 | 444 | 113
Cn1ccc2ccc(-c3nn(Cc4ccc(-c5nnc(C(F)F)o5)cn4)c(=O)o3)cc21 [Compound 31, 3-[[5-[5-(difluoromethyl)-1,3,4-oxadiazol-2-yl]-2-pyridyl]methyl]-5-(1-methylindol-6-yl)-1,3,4-oxadiazol-2-one] | > 50000 | 643 | 77.8
CN1CC(N2CCC(c3cccc(-c4nn(Cc5ccc(-c6nnc(C(F)F)o6)cn5)c(=O)o4)c3F)CC2)C1 [Compound 27, 3-[[5-[5-(difluoromethyl)-1,3,4-oxadiazol-2-yl]-2-pyridyl]methyl]-5-[2-fluoro-3-[1-(1-methylazetidin-3-yl)-4-piperidyl]phenyl]-1,3,4-oxadiazol-2-one] | > 50000 | 420 | 119
CC(C)N1CCN(c2ccc(-c3nn(Cc4ccc(-c5nnc(C(F)F)o5)cn4)c(=O)o3)c(F)c2)CC1 [Compound 25, 3-[[5-[5-(difluoromethyl)-1,3,4-oxadiazol-2-yl]-2-pyridyl]methyl]-5-[2-fluoro-4-(4-isopropylpiperazin-1-yl)phenyl]-1,3,4-oxadiazol-2-one] | > 50000 | 642 | 77.9

Results, then the molecule that gave them:

IC50 [1] [nM] | HDAC6 selectivity (fold) [2] [fold] | IC50 [2] [nM] | SMILES
> 50000 | 840 | 59.5 | CC(C)N1CCc2cc(-c3nn(Cc4ncc(-c5nnc(C(F)F)o5)cc4F)c(=S)o3)ccc2C1 [Compound 136, 3-[[5-[5-(difluoromethyl)-1,3,4-oxadiazol-2-yl]-3-fluoro-2-pyridyl]methyl]-5-(2-isopropyl-3,4-dihydro-1H-isoquinolin-6-yl)-1,3,4-oxadiazol-2-thione]
> 50000 | 893 | 56 | CC(C)N1CCc2cc(-c3nn(Cc4ccc(-c5nnc(C(F)F)o5)cn4)c(=S)o3)sc2C1 [Compound 141, 3-[[5-[5-(difluoromethyl)-1,3,4-oxadiazol-2-yl]-2-pyridyl]methyl]-5-(6-isopropyl-5,7-dihydro-4H-thieno[2,3-c]pyridin-2-yl)-1,3,4-oxadiazol-2-thione]
> 50000 | 1188 | 42.1 | FC(F)c1nnc(-c2ccc(Cn3nc(-c4cccc(N5CCN(C6CCCC6)CC5)n4)oc3=S)nc2)o1 [Compound 102, 5-[6-(4-cyclopentylpiperazin-1-yl)-2-pyridyl]-3-[[5-[5-(difluoromethyl)-1,3,4-oxadiazol-2-yl]-2-pyridyl]methyl]-1,3,4-oxadiazol-2-thione]
> 50000 | 1042 | 48.7 | Fc1cc(-c2nnc(C(F)F)o2)cnc1Cn1nc(-c2ccc3c(c2)CCN(C2CCCCC2)C3)oc1=S [Compound 138, 5-(2-cyclohexyl-3,4-dihydro-1H-isoquinolin-6-yl)-3-[[5-[5-(difluoromethyl)-1,3,4-oxadiazol-2-yl]-3-fluoro-2-pyridyl]methyl]-1,3,4-oxadiazol-2-thione]
> 50000 | 552 | 90.6 | FC(F)c1nnc(-c2ccc(Cn3nc(-c4ccc(CN5CC[C@H](F)C5)cc4)oc3=S)nc2)o1 [Compound 98, 3-[[5-[5-(difluoromethyl)-1,3,4-oxadiazol-2-yl]-2-pyridyl]methyl]-5-[4-[[(3S)-3-fluoropyrrolidin-1-yl]methyl]phenyl]-1,3,4-oxadiazol-2-thione]
> 50000 | 1027 | 48.7 | FC(F)c1nnc(-c2ccc(Cn3nc(-c4cccc(CN5CC[C@@H](F)C5)c4)oc3=S)nc2)o1 [Compound 89, 3-[[5-[5-(difluoromethyl)-1,3,4-oxadiazol-2-yl]-2-pyridyl]methyl]-5-[3-[[(3R)-3-fluoropyrrolidin-1-yl]methyl]phenyl]-1,3,4-oxadiazol-2-thione]
> 50000 | 185 | 271 | Cn1c(-c2ccccc2)cn(Cc2ccc(-c3nnc(C(F)F)o3)cn2)c1=O [Compound 144, 1-((5-(5-(difluoromethyl)-1,3,4-oxadiazol-2-yl)pyridin-2-yl)methyl)-3-methyl-4-phenyl-1,3-dihydro-2H-imidazol-2-one]
> 50000 | 1475 | 33.9 | CNCc1ccc(-c2nn(Cc3ncc(-c4nnc(C(F)F)o4)cc3F)c(=S)o2)cc1 [Compound 108, 3-[[5-[5-(difluoromethyl)-1,3,4-oxadiazol-2-yl]-3-fluoro-2-pyridyl]methyl]-5-[4-(methylaminomethyl)phenyl]-1,3,4-oxadiazol-2-thione]
> 50000 | 484 | 103 | O=c1oc(-c2ccccc2)cn1Cc1ccc(-c2nnc(C(F)F)o2)cn1 [Compound 142, 3-((5-(5-(difluoromethyl)-1,3,4-oxadiazol-2-yl)pyridin-2-yl)methyl)-5-phenyloxazol-2(3H)-one]
> 50000 | 552 | 90.6 | CN1CCc2cc(-c3nn(Cc4ccc(-c5nnc(C(F)F)o5)cn4)c(=S)o3)sc2C1 [Compound 139, 3-[[5-[5-(difluoromethyl)-1,3,4-oxadiazol-2-yl]-2-pyridyl]methyl]-5-(6-methyl-5,7-dihydro-4H-thieno[2,3-c]pyridin-2-yl)-1,3,4-oxadiazol-2-thione]

— patent US20260327214A1, “1,3,4-OXADIAZOLE DERIVATIVE COMPOUNDS AS HISTONE DEACETYLASE 6 INHIBITOR, AND USES THEREOF” (CHONG KUN DANG PHARMACEUTICAL CORP., priority 2022, published 2026)
